# Measured values as given in paper PMC5218480 (PLoS ONE, 2017).
# System: MV-4-11 cells
# Experiment: Gene expression microarray analysis (Affymetrix PrimeView) and GSEA
# Assay type: cell-based, human
# Set-up: RFU PODN (11730768_x_at) / Fold change /veh PODN (11730768_x_at) / RFU LINC00158 (11744669_a_at) / Fold change /veh LINC00158 (11744669_a_at) / RFU DUSP10 (11751237_a_at) / Fold change /veh DUSP10 (11751237_a_at) / RFU ID3 (11757404_x_at) / Fold change /veh ID3 (11757404_x_at) / RFU PLEKHG5 (11737974_s_at) / Fold change /veh PLEKHG5 (11737974_s_at) / RFU LRRC4B (11730491_at) / Fold change /veh LRRC4B (11730491_at) / RFU GIMAP4 (11747438_a_at) / Fold change /veh GIMAP4 (11747438_a_at) / RFU KRT8 (11758183_x_at) / Fold change /veh KRT8 (11758183_x_at) / RFU CNN1 (11734310_a_at) / Fold change /veh CNN1 (11734310_a_at) / RFU VPS37D (11726825_at) / Fold change /veh VPS37D (11726825_at) / RFU C10orf10 (11716522_x_at) / Fold change /veh C10orf10 (11716522_x_at) / RFU KIR2DL2 /// KIR2DL4 /// KIR2DL5A /// KIR2DL5B /// KIR2DS1 /// KIR2DS2 /// KIR2DS3 /// KIR2DS4 /// KIR3DL3 /// KIR3DL3 /// KIR3DS1 (11738374_at) / Fold change /veh KIR2DL2 /// KIR2DL4 /// KIR2DL5A /// KIR2DL5B /// KIR2DS1 /// KIR2DS2 /// KIR2DS3 /// KIR2DS4 /// KIR3DL3 /// KIR3DL3 /// KIR3DS1 (11738374_at) / RFU C1QL1 (11718748_at) / Fold change /veh C1QL1 (11718748_at) / RFU TMPRSS4 (11747572_a_at) / Fold change /veh TMPRSS4 (11747572_a_at) / RFU HAMP (11756126_x_at) / Fold change /veh HAMP (11756126_x_at) / RFU RNFT2 (11725882_a_at) / Fold change /veh RNFT2 (11725882_a_at) / RFU NR4A2 (11747474_a_at) / Fold change /veh NR4A2 (11747474_a_at) / RFU ABCC12 (11746883_a_at) / Fold change /veh ABCC12 (11746883_a_at) / RFU TMEM136 (11760407_x_at) / Fold change /veh TMEM136 (11760407_x_at) / RFU CLDN22 /// WWC2 (11732394_at) / Fold change /veh CLDN22 /// WWC2 (11732394_at) / RFU HLA-DPB1 (11760878_x_at) / Fold change /veh HLA-DPB1 (11760878_x_at) / RFU SPINT1 (11716480_a_at) / Fold change /veh SPINT1 (11716480_a_at) / RFU GAP43 (11754022_s_at) / Fold change /veh GAP43 (11754022_s_at) / RFU A4GNT (11735810_at) / Fold change /veh A4GNT (11735810_at) / RFU PRB3 (11715151_x_at) / Fold change /veh PRB3 (11715151_x_at) / RFU TUBB4B (11761932_at) / Fold change /veh TUBB4B (11761932_at) / RFU CAPN14 (11732068_a_at) / Fold change /veh CAPN14 (11732068_a_at) / RFU TMCC2 (11721928_a_at) / Fold change /veh TMCC2 (11721928_a_at) / RFU IRGQ (11745062_a_at) / Fold change /veh IRGQ (11745062_a_at) / RFU FAM174B (11720279_a_at) / Fold change /veh FAM174B (11720279_a_at) / RFU TMPRSS4 (11748680_a_at) / Fold change /veh TMPRSS4 (11748680_a_at) / RFU FAM212B (11763350_a_at) / Fold change /veh FAM212B (11763350_a_at) / RFU PLEKHG5 (11743358_a_at) / Fold change /veh PLEKHG5 (11743358_a_at) / RFU ZSCAN30 (11745921_a_at) / Fold change /veh ZSCAN30 (11745921_a_at) / RFU CMKLR1 (11741424_a_at) / Fold change /veh CMKLR1 (11741424_a_at) / RFU LOC101060620 /// MAPK8IP1 (11723275_at) / Fold change /veh LOC101060620 /// MAPK8IP1 (11723275_at) / RFU SPTSSB (11747773_x_at) / Fold change /veh SPTSSB (11747773_x_at) / RFU PRSS12 (11739890_at) / Fold change /veh PRSS12 (11739890_at) / RFU BIN1 (11741810_x_at) / Fold change /veh BIN1 (11741810_x_at) / RFU WNT11 (11732464_a_at) / Fold change /veh WNT11 (11732464_a_at) / RFU C10orf10 (11716521_a_at) / Fold change /veh C10orf10 (11716521_a_at) / RFU C5orf56 (11738089_at) / Fold change /veh C5orf56 (11738089_at) / RFU CYB561 (11721691_x_at) / Fold change /veh CYB561 (11721691_x_at) / RFU ANKRD19P (11752326_a_at) / Fold change /veh ANKRD19P (11752326_a_at) / RFU OR2T12 /// OR2T33 /// OR2T8 (11738714_s_at) / Fold change /veh OR2T12 /// OR2T33 /// OR2T8 (11738714_s_at) / RFU VCAN (11748164_a_at) / Fold change /veh VCAN (11748164_a_at) / RFU JSRP1 (11732532_at) / Fold change /veh JSRP1 (11732532_at) / RFU KRTAP10-11 (11738290_x_at) / Fold change /veh KRTAP10-11 (11738290_x_at) / RFU MYO3A (11730013_a_at) / Fold change /veh MYO3A (11730013_a_at) / RFU EBF3 (11725865_a_at) / Fold change /veh EBF3 (11725865_a_at) / RFU CAMK2N1 (11719241_x_at) / Fold change /veh CAMK2N1 (11719241_x_at) / RFU C5orf56 (11738088_a_at) / Fold change /veh C5orf56 (11738088_a_at) / RFU OLFML3 (11715873_a_at) / Fold change /veh OLFML3 (11715873_a_at) / RFU LOC100653217 /// NTM (11731650_a_at) / Fold change /veh LOC100653217 /// NTM (11731650_a_at) / RFU MAPK11 (11762145_a_at) / Fold change /veh MAPK11 (11762145_a_at) / RFU FIZ1 (11724087_x_at) / Fold change /veh FIZ1 (11724087_x_at) / RFU OASL (11726364_x_at) / Fold change /veh OASL (11726364_x_at) / RFU SOX15 (11748057_x_at) / Fold change /veh SOX15 (11748057_x_at) / RFU CD79A (11719716_a_at) / Fold change /veh CD79A (11719716_a_at) / RFU HIST1H1D (11736915_at) / Fold change /veh HIST1H1D (11736915_at) / RFU CASKIN2 (11723855_a_at) / Fold change /veh CASKIN2 (11723855_a_at) / RFU LOC730098 (11760151_x_at) / Fold change /veh LOC730098 (11760151_x_at) / RFU OR4N2 (11742367_at) / Fold change /veh OR4N2 (11742367_at) / RFU PRRT2 (11749266_a_at) / Fold change /veh PRRT2 (11749266_a_at) / RFU SNX32 (11753110_a_at) / Fold change /veh SNX32 (11753110_a_at) / RFU CDHR5 (11726645_a_at) / Fold change /veh CDHR5 (11726645_a_at) / RFU RCAN1 (11760418_a_at) / Fold change /veh RCAN1 (11760418_a_at) / RFU FAM167A (11723789_a_at) / Fold change /veh FAM167A (11723789_a_at) / RFU FAM26E (11764081_at) / Fold change /veh FAM26E (11764081_at) / RFU ISYNA1 (11749810_s_at) / Fold change /veh ISYNA1 (11749810_s_at) / RFU ACY1 (11761880_at) / Fold change /veh ACY1 (11761880_at) / RFU 11764098_at / Fold change /veh 11764098_at / RFU SAMD14 (11745864_x_at) / Fold change /veh SAMD14 (11745864_x_at) / RFU NPB (11741838_a_at) / Fold change /veh NPB (11741838_a_at) / RFU TMPRSS6 (11731388_a_at) / Fold change /veh TMPRSS6 (11731388_a_at) / RFU KRTAP10-2 (11738614_at) / Fold change /veh KRTAP10-2 (11738614_at) / RFU ARHGAP8 /// PRR5-ARHGAP8 (11727945_x_at) / Fold change /veh ARHGAP8 /// PRR5-ARHGAP8 (11727945_x_at) / RFU KRTAP5-7 /// NADSYN1 (11734609_at) / Fold change /veh KRTAP5-7 /// NADSYN1 (11734609_at) / RFU RASL12 (11751679_a_at) / Fold change /veh RASL12 (11751679_a_at) / RFU CDKN2B (11736163_a_at) / Fold change /veh CDKN2B (11736163_a_at) / RFU PRF1 (11729649_at) / Fold change /veh PRF1 (11729649_at) / RFU, ZNF638 /// ZNF638-IT1 / Fold change vs veh, ZNF638 /// ZNF638-IT1 / RFU, PANK3 / Fold change vs veh, PANK3 / RFU, SH3YL1 / Fold change vs veh, SH3YL1 / RFU, ZEB2 / Fold change vs veh, ZEB2 / RFU, NRIP1 / Fold change vs veh, NRIP1 / RFU, PTTG1IP / Fold change vs veh, PTTG1IP / RFU, CAPN2 / Fold change vs veh, CAPN2 / RFU, MED14 / Fold change vs veh, MED14 / RFU, SNORA58 / Fold change vs veh, SNORA58 / RFU, C1orf63 / Fold change vs veh, C1orf63 / RFU, LRRFIP1 / Fold change vs veh, LRRFIP1 / RFU, NDUFAF7 / Fold change vs veh, NDUFAF7 / RFU, SLC12A2 / Fold change vs veh, SLC12A2 / RFU, IBTK / Fold change vs veh, IBTK / RFU, ESF1 / Fold change vs veh, ESF1 / Fold change vs veh, TMEM50B / RFU, TAOK1 / Fold change vs veh, TAOK1 / RFU, ACBD3 / Fold change vs veh, ACBD3 / RFU, TMA16 / Fold change vs veh, TMA16 / RFU, RWDD3 / Fold change vs veh, RWDD3 / RFU, BCAT1 / Fold change vs veh, BCAT1 / RFU, EDEM3 / Fold change vs veh, EDEM3 / RFU, TMEM33 / Fold change vs veh, TMEM33 / RFU, WDR75 / Fold change vs veh, WDR75 / RFU, AHCTF1 / Fold change vs veh, AHCTF1 / RFU, TFRC / Fold change vs veh, TFRC / RFU, ZDHHC17 / Fold change vs veh, ZDHHC17 / RFU, NOM1 / Fold change vs veh, NOM1 / RFU, ARL8B / Fold change vs veh, ARL8B / RFU, ZBTB11 / Fold change vs veh, ZBTB11 / RFU, TAMM41 / Fold change vs veh, TAMM41 / RFU, KIAA1704 /// LOC100996395 / Fold change vs veh, KIAA1704 /// LOC100996395 / RFU, ING1 / Fold change vs veh, ING1 / RFU, TRMT61B / Fold change vs veh, TRMT61B / RFU, FUBP3 / Fold change vs veh, FUBP3 / RFU, TP53 / Fold change vs veh, TP53 / RFU, TNKS2 / Fold change vs veh, TNKS2 / RFU, ZFP14 / Fold change vs veh, ZFP14 / RFU, ACTR2 / Fold change vs veh, ACTR2 / RFU, PPP3R1 / Fold change vs veh, PPP3R1 / RFU, PIK3R1 / Fold change vs veh, PIK3R1 / RFU, HNRNPA1 / Fold change vs veh, HNRNPA1 / RFU, RNF170 / Fold change vs veh, RNF170 / RFU, ZNF28 / Fold change vs veh, ZNF28 / RFU, RNGTT / Fold change vs veh, RNGTT / RFU, OGT / Fold change vs veh, OGT / RFU, BRD1 / Fold change vs veh, BRD1 / RFU, MARS / Fold change vs veh, MARS / RFU, ZNF655 / Fold change vs veh, ZNF655 / RFU, FAHD1 / Fold change vs veh, FAHD1 / RFU, BDP1 / Fold change vs veh, BDP1 / RFU, LRRCC1 / Fold change vs veh, LRRCC1 / RFU, ARID1A / Fold change vs veh, ARID1A / RFU, ZNF146 / Fold change vs veh, ZNF146 / RFU, ZNF330 / Fold change vs veh, ZNF330 / RFU, GPN3 / Fold change vs veh, GPN3 / RFU, C9orf123 / Fold change vs veh, C9orf123 / RFU, N4BP2L2 / Fold change vs veh, N4BP2L2 / RFU, ARFIP1 / Fold change vs veh, ARFIP1 / RFU, FAM179B / Fold change vs veh, FAM179B / RFU, BCL10 / Fold change vs veh, BCL10 / RFU, UHRF1BP1L / Fold change vs veh, UHRF1BP1L / RFU, BET1 / Fold change vs veh, BET1 / RFU, CNOT2 / Fold change vs veh, CNOT2 / RFU, ZNF268 / Fold change vs veh, ZNF268 / Fold change vs veh, ZNF507 / RFU, DGCR2 / Fold change vs veh, DGCR2 / RFU, WDSUB1 / Fold change vs veh, WDSUB1 / Fold change vs veh, HSP90B1 /// MIR3652 / RFU, ADSS / Fold change vs veh, ADSS / RFU, GK / Fold change vs veh, GK / RFU, ZNF148 / Fold change vs veh, ZNF148 / RFU, TAF9 / Fold change vs veh, TAF9 / RFU, SLC1A5 / Fold change vs veh, SLC1A5 / RFU, SLMO2 / Fold change vs veh, SLMO2 / RFU, ABCC4 / Fold change vs veh, ABCC4 / RFU, LOC101060439 /// RAP1B / Fold change vs veh, LOC101060439 /// RAP1B / RFU, RFX7 / Fold change vs veh, RFX7 / RFU, GTPBP10 / Fold change vs veh, GTPBP10 / RFU, CNEP1R1 / Fold change vs veh, CNEP1R1 / RFU, BIVM-ERCC5 /// ERCC5 / Fold change vs veh, BIVM-ERCC5 /// ERCC5 / RFU, ILF3 / Fold change vs veh, ILF3 / RFU 11762660_at / Fold change /veh 11762660_at / RFU VCAN (11757783_s_at) / Fold change /veh VCAN (11757783_s_at) / RFU DDX43 (11728927_at) / Fold change /veh DDX43 (11728927_at) / RFU KRT8 (11758188_x_at) / Fold change /veh KRT8 (11758188_x_at) / RFU NKD1 (11759106_at) / Fold change /veh NKD1 (11759106_at) / RFU SRD5A1 (11742802_a_at) / Fold change /veh SRD5A1 (11742802_a_at) / RFU TPSAB1 /// TPSB2 (11721975_s_at) / Fold change /veh TPSAB1 /// TPSB2 (11721975_s_at) / RFU GSTM3 (11746129_a_at) / Fold change /veh GSTM3 (11746129_a_at) / RFU IL23R (11737362_x_at) / Fold change /veh IL23R (11737362_x_at) / RFU TMEM51 (11727254_a_at) / Fold change /veh TMEM51 (11727254_a_at) / RFU PIWIL2 (11732686_x_at) / Fold change /veh PIWIL2 (11732686_x_at) / RFU ORM1 (11744905_x_at) / Fold change /veh ORM1 (11744905_x_at) / RFU CCDC152 (11743942_at) / Fold change /veh CCDC152 (11743942_at) / RFU ECM1 (11717891_a_at) / Fold change /veh ECM1 (11717891_a_at) / RFU IL23R (11748794_a_at) / Fold change /veh IL23R (11748794_a_at) / RFU TNFAIP8L3 (11732012_x_at) / Fold change /veh TNFAIP8L3 (11732012_x_at) / RFU MBOAT4 (11741988_at) / Fold change /veh MBOAT4 (11741988_at) / RFU 11764193_at / Fold change /veh 11764193_at / RFU TMEM53 (11763286_at) / Fold change /veh TMEM53 (11763286_at) / RFU MAGEB2 (11727129_at) / Fold change /veh MAGEB2 (11727129_at) / RFU TMEM200A (11744735_a_at) / Fold change /veh TMEM200A (11744735_a_at) / RFU CCDC152 (11751479_a_at) / Fold change /veh CCDC152 (11751479_a_at) / RFU FAM211A (11726209_a_at) / Fold change /veh FAM211A (11726209_a_at) / RFU RGS16 (11746705_a_at) / Fold change /veh RGS16 (11746705_a_at) / RFU VCAN (11755009_s_at) / Fold change /veh VCAN (11755009_s_at) / RFU RHOB (11743442_s_at) / Fold change /veh RHOB (11743442_s_at) / RFU RGS16 (11720943_a_at) / Fold change /veh RGS16 (11720943_a_at) / RFU RGS16 (11720944_at) / Fold change /veh RGS16 (11720944_at) / RFU, VPS4B / Fold change vs veh, VPS4B / RFU, CREB1 / Fold change vs veh, CREB1 / RFU, DNAJC13 / Fold change vs veh, DNAJC13 / RFU, GNAQ / Fold change vs veh, GNAQ / RFU, CDK5R1 / Fold change vs veh, CDK5R1 / RFU, ZRANB3 / Fold change vs veh, ZRANB3 / RFU, CUL4A / Fold change vs veh, CUL4A / RFU, CCNY / Fold change vs veh, CCNY / RFU, UFL1 / Fold change vs veh, UFL1 / RFU, COG3 / Fold change vs veh, COG3 / RFU, DIAPH2 / Fold change vs veh, DIAPH2 / RFU, SKA2 / Fold change vs veh, SKA2 / RFU, AFF3 / Fold change vs veh, AFF3 / RFU, LMF1 / Fold change vs veh, LMF1 / RFU, IPO11 / Fold change vs veh, IPO11 / RFU, DFFB / Fold change vs veh, DFFB / RFU, FOXP1 / Fold change vs veh, FOXP1 / RFU, CARD8 / Fold change vs veh, CARD8 / RFU, STRN3 / Fold change vs veh, STRN3 / RFU, ADK / Fold change vs veh, ADK / RFU, RASSF2 / Fold change vs veh, RASSF2 / RFU, WIPF1 / Fold change vs veh, WIPF1 / RFU, LARP1B / Fold change vs veh, LARP1B / RFU, RASA1 / Fold change vs veh, RASA1 / RFU, RB1 / Fold change vs veh, RB1 / RFU, PPFIA1 / Fold change vs veh, PPFIA1 / RFU, MAT2A / Fold change vs veh, MAT2A / RFU, CCT5 / Fold change vs veh, CCT5 / RFU, WDR92 / Fold change vs veh, WDR92 / RFU, CUX1 / Fold change vs veh, CUX1 / RFU, TTC7A / Fold change vs veh, TTC7A / RFU, TMEM135 / Fold change vs veh, TMEM135 / RFU, DEPTOR / Fold change vs veh, DEPTOR / RFU, CPM / Fold change vs veh, CPM / RFU, DNAJB6 / Fold change vs veh, DNAJB6 / RFU, CACNA2D3 / Fold change vs veh, CACNA2D3 / RFU, DTX4 / Fold change vs veh, DTX4 / RFU, TFCP2 / Fold change vs veh, TFCP2 / RFU, GMCL1 /// GMCL1P1 / Fold change vs veh, GMCL1 /// GMCL1P1 / RFU, AEBP2 / Fold change vs veh, AEBP2 / RFU, SNHG1 /// SNORD22 /// SNORD25 /// SNORD26 /// SNORD27 /// SNORD28 /// SNORD29 /// SNORD31 / Fold change vs veh, SNHG1 /// SNORD22 /// SNORD25 /// SNORD26 /// SNORD27 /// SNORD28 /// SNORD29 /// SNORD31 / Fold change (Aza/veh), C12orf56 (ProbeSet 11735607_a_at) / Fold change (ACY-1035/veh), C12orf56 (ProbeSet 11735607_a_at) / Fold change (Aza/veh), FGFR1OP (ProbeSet 11751329_s_at) / Fold change (ACY-1035/veh), FGFR1OP (ProbeSet 11751329_s_at) / Fold change (Aza/veh), VPS36 (ProbeSet 11739960_a_at) / Fold change (ACY-1035/veh), VPS36 (ProbeSet 11739960_a_at) / RFU SYPL1 (11715823_x_at) / Fold change /veh SYPL1 (11715823_x_at) / RFU IGFBP7 (11715501_s_at) / Fold change /veh IGFBP7 (11715501_s_at) / RFU REEP3 (11722064_at) / Fold change /veh REEP3 (11722064_at) / RFU IGLL1 (11728026_x_at) / Fold change /veh IGLL1 (11728026_x_at): dose or concentration left out as unconfirmed
# Details: MV-4-11 cells, 48 hours
smiles,measurement,value
Nc1ccc(-c2cccs2)cc1NC(=O)c1ccc2c(c1)cc(C1CC1)n2CCN1CCOCC1 [ACY-1035],Fold change /veh SRD5A1 (11742802_a_at),1.16
